Results as given in ChEMBL document CHEMBL1132886, “Syntheses and properties of photoactivatable sugar derivatives designed to probe the sugar-binding site of melibiose permease” (Bioorg Med Chem Lett, 2000).
pKd: −log10 of the molar value.

What was measured:
[1] = Binding affinity against melibiose permease ofEscherichia coli; set-up: species or system Escherichia coli
[2] = Binding affinity against melibiose permease of Escherichia coli

SMILES	pKd [1]	pKd [2]
N#[N+]c1ccc(OC2O[C@H](CO)[C@@H](O)[C@H](O)[C@H]2O)cc1 (some centres undefined)	4.22	
[N-]=[N+]=Nc1ccc(OC2O[C@H](CO)[C@@H](O)[C@H](O)[C@H]2O)cc1 (some centres undefined)	6.00	
OC[C@H]1OC(Oc2ccc(C3(C(F)(F)F)N=N3)cc2)[C@H](O)[C@@H](O)[C@@H]1O (some centres undefined)	5.70	
O=[N+]([O-])c1ccc(O[C@H]2O[C@H](CO)[C@@H](O)[C@H](O)[C@H]2O)cc1		6.22
